According to patent US10906977B2, “Enhancing the therapeutic activity of immune checkpoint inhibitor” (Maine Medical Center Research Institute, priority 2016, dated 2021):

Assays:
fibroblasts = experiment: Growth factor-induced fibroblast migration on denatured collagen; type: cell-based, human; conditions: FGF-2 20 ng/ml; FIG. 22B, 22E, 24D
Method: Transwell membranes (8.0 um pore size) were coated with 5 μg/ml of native or denatured collagen for 12 hrs at […] as described previously (13). Migration buffer containing RPMI 1640, 1 mM MgCl2, 0.2 mM MnCl2 and 0.5% BSA in the presence or absence of 5× concentrated serum free SKOV-3 CM or 20 ng/ml FGF-2 was placed in the lower chambers. SKOV-3 or fibroblasts (1×105) were resuspended in migration buffer containing RPMI 1640, 1 mM MgCl2, 0.2 mM MnCl2 and 0.5% BSA in the presence or absence of antibodies directed to the HU177 epitope, or α10β1, (10 μg/ml) or 100 uM of the MEK inhibitor ([…]). Cells were added to the top chamber and allowed to migrate from 2 to 4 hrs. Cells remaining on the top of the membranes were removed and cells that had migrated to the underside of the membrane were quantified by direct cell counts of crystal violet stained cells or by measuring the optical density of eluted cell-associated crystal violet dye as previously described (15). Assays were completed at least 3×.

[1] = system: chick chorioallantoic membrane (CAM); experiment: Chick CAM angiogenesis induced by soluble RGD collagen peptides; type: in vivo; conditions: soluble peptide; FIG. 5C
Method: (§1) The chick chorioallantoic membrane (CAM) assays were carried out with some modifications (19). For all experiments CAMs of 10-day-old chick embryos obtained from Charles River (North Franklin, Conn.) were separated from the shell membrane. Filter discs either non-treated (inflammation assays) pretreated (angiogenesis assays) with cortisone acetate (3.0 mg/ml) containing RPMI only or FGF-2 (40 ng). CAMs were either non-treated or treated topically with Mab XL313, XL166 or a non-specific control antibody (10 μg/embryo every 24 h for three consecutive treatments). […] At the end of the incubation period the embryos were sacrificed and the CAM tissues were analyzed. Angiogenesis was quantified by counting the number of angiogenic branching blood vessels within the area of the filter disc. The angiogenic index was determined by subtracting the mean number of blood vessel branch points from untreated CAMs from each experimental condition. Eight to twelve embryos were used per condition and experiments were repeated at least three times.

[2] = system: chick chorioallantoic membrane (CAM); experiment: Chick CAM inflammation induced by soluble RGD collagen peptides; type: in vivo; conditions: FIG. 5D
Method: as §1

[3] = system: human retinal microvascular endothelial cells (HRMVEC); experiment: Cell adhesion to immobilized collagen RGD peptides; type: cell-based; conditions: peptide immobilized 100 μg/ml
Method: (§2) RGD peptides (P-1, P-2, P-3, P-4, P-5, and P-C) were immobilized (100 μg/ml) to wells. HUVEC, HMVEC, HRMVEC, and HDF cells were suspended in adhesion buffer (RPMI containing 1 mM MgCl2, 0.2 mM MnCl2 and 0.5% BSA) and 1×10^5 cells were seeded into the wells in the presence or absence of P4C10, LM609, P1F6 or control antibodies (100 μg/ml). Cells were allowed to attach for 25 min at 37° C. Media containing non-attached cells was aspirated and attached cells were washed with PBS and stained with crystal violet. Cell adhesion was quantified by measuring the optical density of eluted dye. Adhesion assays were completed at least three times with triplicate wells.

[4] = system: human umbilical vein endothelial cell (HUVEC); experiment: Cell adhesion to immobilized collagen RGD peptides; type: cell-based; conditions: peptide immobilized 100 μg/ml; FIG. 1A
Method: as §2

human dermal fibroblasts = experiment: Cell adhesion to immobilized collagen RGD peptides; type: cell-based; conditions: peptide immobilized 100 μg/ml
Method: as §2

[5] = system: human microvascular endothelial cells (HMVEC); experiment: Cell adhesion to immobilized collagen RGD peptides; type: cell-based; conditions: peptide immobilized 100 μg/ml
Method: as §2

[6] = system: chick chorioallantoic membrane (CAM); experiment: Chick CAM inflammation assay, FGF-2 induced, no cortisone acetate; type: in vivo
Method: The chick chorioallantoic membrane (CAM) assays were carried out with some modifications (19). For all experiments CAMs of 10-day-old chick embryos obtained from Charles River (North Franklin, Conn.) were separated from the shell membrane. Filter discs either non-treated (inflammation assays) pretreated (angiogenesis assays) with cortisone acetate (3.0 mg/ml) containing RPMI only or FGF-2 (40 ng). CAMs were either non-treated or treated topically with Mab XL313, XL166 or a non-specific control antibody (10 μg/embryo every 24 h for three consecutive treatments). For peptide induction experiments, CAMs were stimulated with 100 ng/ml of the RGD peptides (P-1, P-2, P-C) in the presence or absence of the P38MAPK inhibitor, SB202190 (10 μM). At the end of the incubation period the embryos were sacrificed and the CAM tissues were analyzed. Angiogenesis was quantified by counting the number of angiogenic branching blood vessels within the area of the filter disc. The angiogenic index was determined by subtracting the mean number of blood vessel branch points from untreated CAMs from each experimental condition. Eight to twelve embryos were used per condition and experiments were repeated at least three times.
CAMs examined for accumulation of granulation tissue were harvested, fixed in 4% PFA and paraffin embedded and sectioned (4 μm) and stained with Giemsa. CAM tissues analyzed via immunofluorescence were harvested, embedded with OCT, snap frozen and sectioned ([…]). Frozen sections were fixed in 50% methanol/50% acetone, air dried and blocked with 2.5% BSA for 1 h at 37° C. For expression of the XL313 and XL166 epitopes as well as monocyte/macrophages, FGF-2 stimulated CAM tissues were stained with Mabs XL313, XL166 (50 μg/ml) or KUL1 (1:250) and then incubated with Alexa-488 labeled secondary antibodies (1:2000 dilution). […] Using a similar strategy, sections of RGD peptide-treated CAM tissues were analyzed for phosphorylated-P38MAPK in angiogenic vessels by co-incubation of anti-phospho-P38MAPK (1:50) and anti-vWf (1:500) antibodies. […]

XL313 epitope = experiment: Circulating Mab XL313 reactive epitope in chick embryo serum (solid-phase ELISA); type: in vivo; conditions: serum collected three days after FGF-2 stimulation; FIG. 5A
Text: FIG. 5A-FIG. 5D are bar graphs depicting the induction of angiogenesis and inflammation in vivo by soluble RGDKGE (SEQ ID NO: 1) but not a related RGDAPG (SEQ ID NO: 11) containing collagen epitope. FIG. 5A is a bar graph depicting serum from chick embryos in which the CAMs had been either not stimulated (NT) or stimulated with FGF-2 was collected. Relative levels of circulating Mab XL313 reactive epitope were quantified by solid-phase ELISA. Data represent mean Mab XL313 reactivity±S.E (N=12 to 13). FIG. 5B is a bar graph depicting quantification of dose dependent induction of angiogenesis by RGDKGE (SEQ ID NO: 1) containing collagen peptide P-2. […] FIG. 5C is a bar graph depicting quantification of CAM angiogenesis associated with RGD containing collagen peptides P-1 (KGDRGDAPG; SEQ ID NO: 2), P-2 (QGPRGDKGE; SEQ ID NO: 3) or control peptide P-C (QGPSGSPGE; SEQ ID NO: 4). […] FIG. 5D is a bar graph depicting the quantification of CAM inflammation associated with RGD containing collagen peptides P-1 (KGDRGDAPG; SEQ ID NO: 2), P-2 (QGPRGDKGE; SEQ ID NO: 3) or control peptide P-C (QGPSGSPGE (SEQ ID NO: 4)). […]
Due to the differential expression and bio-distribution of the RGDKGE (SEQ ID NO: 1) epitope in angiogenic CAM tissues and its expression in macrophage-conditioned medium, it was determined whether a soluble circulating form of this RGDKGE (SEQ ID NO: 1) epitope could be generated. […]

[7] = target: T1, integrin αvβ3 on cells (HUVEC endothelial cells, M21 melanoma cells, human T-cells) (human, UniProt P06756 31-1048; P05106 27-788); experiment: HUVEC adhesion to immobilized peptides with function blocking anti-integrin antibodies
T1 construct: whole, on cells; Endogenous receptor on the cells used in adhesion and signalling assays; also called β3 integrin
T1 sequence (P06756 31-1048, chain 1 of 2): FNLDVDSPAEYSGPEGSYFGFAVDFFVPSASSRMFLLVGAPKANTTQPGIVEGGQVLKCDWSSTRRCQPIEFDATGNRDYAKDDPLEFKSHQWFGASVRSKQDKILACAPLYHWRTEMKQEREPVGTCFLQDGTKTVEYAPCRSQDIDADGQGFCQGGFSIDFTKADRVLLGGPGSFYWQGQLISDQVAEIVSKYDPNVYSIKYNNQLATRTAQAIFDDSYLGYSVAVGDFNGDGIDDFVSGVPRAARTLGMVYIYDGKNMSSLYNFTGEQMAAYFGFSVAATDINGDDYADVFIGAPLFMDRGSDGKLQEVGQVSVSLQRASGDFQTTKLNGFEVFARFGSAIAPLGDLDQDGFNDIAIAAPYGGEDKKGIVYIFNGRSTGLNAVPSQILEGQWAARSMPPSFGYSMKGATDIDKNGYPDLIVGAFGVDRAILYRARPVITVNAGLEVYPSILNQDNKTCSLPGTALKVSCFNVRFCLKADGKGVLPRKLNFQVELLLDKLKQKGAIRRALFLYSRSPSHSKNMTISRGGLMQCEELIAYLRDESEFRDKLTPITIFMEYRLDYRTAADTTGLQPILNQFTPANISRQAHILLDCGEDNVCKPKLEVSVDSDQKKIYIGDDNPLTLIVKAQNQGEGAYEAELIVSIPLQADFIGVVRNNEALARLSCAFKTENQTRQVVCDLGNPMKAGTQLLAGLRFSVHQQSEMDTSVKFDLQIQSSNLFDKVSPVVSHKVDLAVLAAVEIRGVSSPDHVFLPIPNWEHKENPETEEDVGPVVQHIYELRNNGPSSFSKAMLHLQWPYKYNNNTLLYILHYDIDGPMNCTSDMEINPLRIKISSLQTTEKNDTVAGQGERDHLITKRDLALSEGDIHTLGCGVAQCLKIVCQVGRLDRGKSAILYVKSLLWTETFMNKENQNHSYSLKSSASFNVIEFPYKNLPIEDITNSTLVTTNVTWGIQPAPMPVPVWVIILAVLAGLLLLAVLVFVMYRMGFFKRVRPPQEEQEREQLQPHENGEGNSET
T1 sequence (P05106 27-788, chain 2 of 2): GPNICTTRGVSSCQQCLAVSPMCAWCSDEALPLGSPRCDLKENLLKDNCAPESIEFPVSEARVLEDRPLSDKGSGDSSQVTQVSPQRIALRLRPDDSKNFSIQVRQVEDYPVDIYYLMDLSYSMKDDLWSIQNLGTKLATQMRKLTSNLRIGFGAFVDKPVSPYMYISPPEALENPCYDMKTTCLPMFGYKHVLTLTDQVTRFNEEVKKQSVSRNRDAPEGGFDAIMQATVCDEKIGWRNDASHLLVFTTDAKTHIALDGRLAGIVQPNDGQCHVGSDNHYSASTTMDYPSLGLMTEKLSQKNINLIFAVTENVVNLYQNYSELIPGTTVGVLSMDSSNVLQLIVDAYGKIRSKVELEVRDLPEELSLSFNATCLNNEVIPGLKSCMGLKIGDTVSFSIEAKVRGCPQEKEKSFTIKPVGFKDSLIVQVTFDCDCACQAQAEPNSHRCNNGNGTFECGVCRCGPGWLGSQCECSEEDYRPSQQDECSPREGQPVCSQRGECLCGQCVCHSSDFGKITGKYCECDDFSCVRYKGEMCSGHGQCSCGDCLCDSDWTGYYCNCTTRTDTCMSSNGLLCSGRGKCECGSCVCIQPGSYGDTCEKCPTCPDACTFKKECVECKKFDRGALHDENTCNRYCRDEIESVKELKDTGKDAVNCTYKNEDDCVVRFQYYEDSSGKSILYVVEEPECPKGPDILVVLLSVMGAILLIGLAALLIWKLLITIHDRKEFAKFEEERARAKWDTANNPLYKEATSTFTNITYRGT
Method: as §2, with “µg/ml)” for “μg/ml)”, “µg/ml).” for “μg/ml).”
Example 8: Collagen Peptide P-2 Binds and Activates αvβ3 and Stimulates P38MAPK Activation in a Src Dependent Manner It is well established that multiple integrins recognize RGD amino acid motifs within ECM proteins. However, the ability of an integrin to bind distinct RGD epitopes depends in part on its orientation within the parent molecule and the C-terminal amino acid sequences flanking the RGD motif (25-27). Potential cell surface receptors that mediate interactions with the RGDKGE (SEQ ID NO: 1) containing collagen P-2 peptide were identified. The ability of endothelial cells to bind the RGD collagen peptides P-1 and P-2 in the presence or absence of function blocking anti-integrin antibodies was examined.

[8] = target: T2, integrin αvβ3 (recombinant) (UniProt P06756 31-992; P05106 27-718); experiment: solid-phase binding assay, integrin on immobilized PGF peptide (100 ug/ml)
T2 construct: Bought recombinant integrin; also called recombinant integrin receptor αvβ3
T2 sequence (P06756 31-992 limits assumed, chain 1 of 2): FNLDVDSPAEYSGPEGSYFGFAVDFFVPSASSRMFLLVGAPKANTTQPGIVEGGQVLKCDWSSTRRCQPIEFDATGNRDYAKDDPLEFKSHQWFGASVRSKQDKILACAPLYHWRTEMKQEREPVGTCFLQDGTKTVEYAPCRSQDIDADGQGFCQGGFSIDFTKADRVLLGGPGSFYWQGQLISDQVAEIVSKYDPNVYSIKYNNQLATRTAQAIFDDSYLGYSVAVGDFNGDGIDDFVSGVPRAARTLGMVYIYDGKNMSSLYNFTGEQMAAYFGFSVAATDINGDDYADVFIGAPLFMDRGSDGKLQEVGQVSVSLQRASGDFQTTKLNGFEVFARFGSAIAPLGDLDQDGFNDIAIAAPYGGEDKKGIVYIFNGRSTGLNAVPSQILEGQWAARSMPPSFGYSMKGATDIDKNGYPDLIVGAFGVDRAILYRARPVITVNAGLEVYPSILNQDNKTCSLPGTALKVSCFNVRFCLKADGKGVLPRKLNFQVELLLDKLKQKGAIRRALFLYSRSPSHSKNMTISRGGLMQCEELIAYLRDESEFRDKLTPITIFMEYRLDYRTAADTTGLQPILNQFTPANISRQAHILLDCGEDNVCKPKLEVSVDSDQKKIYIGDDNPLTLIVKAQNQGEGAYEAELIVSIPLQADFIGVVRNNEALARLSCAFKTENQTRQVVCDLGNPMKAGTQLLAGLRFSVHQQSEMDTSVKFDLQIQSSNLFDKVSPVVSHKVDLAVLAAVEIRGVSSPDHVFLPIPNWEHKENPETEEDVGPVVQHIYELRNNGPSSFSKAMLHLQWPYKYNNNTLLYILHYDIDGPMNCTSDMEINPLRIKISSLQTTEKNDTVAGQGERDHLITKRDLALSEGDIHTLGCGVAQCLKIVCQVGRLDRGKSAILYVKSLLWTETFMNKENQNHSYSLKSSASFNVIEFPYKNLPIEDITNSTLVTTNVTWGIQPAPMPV
T2 sequence (P05106 27-718 limits assumed, chain 2 of 2): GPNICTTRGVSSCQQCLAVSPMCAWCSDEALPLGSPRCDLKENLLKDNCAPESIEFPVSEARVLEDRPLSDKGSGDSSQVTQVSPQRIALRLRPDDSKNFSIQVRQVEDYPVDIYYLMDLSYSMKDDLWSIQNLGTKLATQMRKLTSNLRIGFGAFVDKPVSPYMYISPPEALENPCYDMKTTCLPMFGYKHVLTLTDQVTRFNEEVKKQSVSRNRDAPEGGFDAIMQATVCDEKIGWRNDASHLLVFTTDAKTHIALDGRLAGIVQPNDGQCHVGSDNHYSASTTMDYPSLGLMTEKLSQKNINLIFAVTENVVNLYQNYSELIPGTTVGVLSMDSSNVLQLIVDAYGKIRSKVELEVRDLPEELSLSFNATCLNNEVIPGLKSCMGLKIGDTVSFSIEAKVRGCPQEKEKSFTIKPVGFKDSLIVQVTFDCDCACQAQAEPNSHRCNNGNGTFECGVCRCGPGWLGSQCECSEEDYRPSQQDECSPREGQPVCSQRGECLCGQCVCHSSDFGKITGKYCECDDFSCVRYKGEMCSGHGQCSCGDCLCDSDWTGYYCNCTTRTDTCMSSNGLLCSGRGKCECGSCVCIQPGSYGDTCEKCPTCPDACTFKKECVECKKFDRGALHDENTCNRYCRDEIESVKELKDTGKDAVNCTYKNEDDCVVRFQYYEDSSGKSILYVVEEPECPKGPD
Method: Plates were coated with 25 µg/ml of native or denatured (boiled 15 minutes) collagen. Collagen epitope peptide PGF and Cont-peptides were immobilized at 100 ug/ml. Integrins (0-2.0 µg/ml) were diluted in binding buffer containing 20 mM Tris, 15 mM NaCl, 1 mM MgCl2, 0.2 mM MnCl2, 0.5% BSA pH 7.4 as described (13). Integrins were allowed to bind for 1 hr and plates washed and incubated with anti-integrin antibodies (1:100 dilution) for 1 hr. Plates were washed and incubated with HRP-labeled secondary antibodies (1:5000 dilution). In a second assay, integrins (0.5 µg/ml) were coated in binding buffer and plates were washed, blocked as before and denatured (boiled 15 minutes) collagen was added (0-10.0 µg/ml). Denatured collagen was detected with anti-collagen antibody (1:1000). For integrin blocking ELISAs, wells were coated with denatured collagen and pre-treated (0.1 µg/ml) with anti-HU177 or control antibody. Following washing, wells were incubated with integrins (2.0 µg/ml) and binding was detected as described. Assays were carried out at least 3 times.

COc1cccc(-c2cc(=O)c3ccccc3o2)c1N [MEK inhibitor (PD98059), PD98059]
FGF-2 stimulated fibroblast migration on denatured collagen (fibroblasts): blocked

CQGPSGAPGEC [P-C, control peptide lacking the RGD tri-peptide motif, reference compound]
induction of CAM angiogenesis as compared to no treatment [1]: not | CAM inflammation following stimulation with peptide [2]: Minimal evidence of tissue inflammation | HRMVEC adhesion to immobilized peptide [3]: failed to support interactions | HUVEC adhesion to immobilized peptide [4]: failed to support adhesion | human dermal fibroblast adhesion to immobilized peptide (human dermal fibroblasts): failed to support interactions | HMVEC adhesion to immobilized peptide [5]: failed to support interactions

FGF-2: Fibroblast growth factor-2 from R&D Systems, used to stimulate CAMs
CAMs showing robust formation of thick granulation tissue ([6]; FGF-2 stimulation in the absence of cortisone acetate, FIG. 3E): approximately 50% | macrophage infiltration of the CAMs, enhancement as compared to control ([6]; FGF-2 stimulation without cortisone acetate, FIG. 3D): over 2 fold | increase in levels of circulating XL313 epitope (XL313 epitope): 2 fold

CKGDRGDAPGC [Synthetic collagen RGD containing peptide P-1 (CKGDRGDAPGC)]
binding result [7]: binds

CPGFPGFC [Collagen PGF-peptide (CPGFPGFC), synthetic HU177 epitope]
binding result [8]: no binding
